Laboratory results as given in EP3186387B1, “METHOD OF DETERMINING THE ACTIVITY OF ENZYMES CONVERTING CYTOSINE DERIVATIVES TO URACIL DERIVATIVES IN CELLS, TISSUES AND ORGANISMS” (Univerzita Palackého v Olomouci, priority 2014, dated 2016).

Tested on: HeLa cells
Assay: Determination of the deamination activity in adherent HeLa cells: signal of EdU/EdC in DNA, detected by anti-bromodeoxyuridine antibody or click reaction
Type: cell-based, Human
Conditions: for ratios of EC50 in EdU and EdC (KEdU½/KEdC½): two hours of incubation, without FdU
Description: • Figure 1 The metabolism of EdC and EdCMP from the perspective of the deamination activity of some known deaminases in human cells. CDA - 2'-deoxycytidine/cytidine deaminase; dCK - 2'-deoxycytidine kinase; dCMPDA - 2'-deoxycytidine-5'-phosphate deaminase; cdN and mdN - cytosolic and mitochondrial pyrimidine specific 5'-deoxynucleotidase • Figure 2: Schematic depiction of determination of the activity of the enzymes transforming cytosine derivatives into uracil derivatives. • Figure 3: Determination of the deamination activity in HeLa cells using specific antibodies or using a click reaction (Example 1). The figure depicts the dependence of the average intensity of the signals on the used concentrations of EdU or EdC after two hours of incubation with various concentrations of EdU or EdC without the addition of FdU. Two methods were used for the detection of both modified nucleosides: A) detection with a click reaction with an azido dye (Alexa Fluor 488- azide); B) detection using primary anti-bromodeoxyuridine antibody and secondary antibody conjugated with Alexa Fluor 488. The measured intensities of the signals were processed in the Sigma Plot software, in which the curve was constructed and the half of maximal effective concentration (EC50) was determined. It is clear from the course of the graphs that EdC is not likely to be incorporated in the DNA. This was confirmed also by the mutual ratios between the measured values of the intensities obtained by the antibodies and by the click reaction. These ratios were 1.099 for EdU and 1.060 for EdC. […] For the determination, it is also possible to use other measured concentrations, because there was no saturation of the signal even at higher concentrations. • Figure 4 Time curve (Example 1). […] The incorporated nucleosides were detected using a click reaction with azidofluorochrome. • Figure 5: The comparison of the incorporation of FU and FC into HeLa cells when using various concentrations (Example 1). […] EdU was detected with antibodies. […]

ratios of EC50 in EdU and EdC (KEdU½/KEdC½) (detection performed by the antibodies): 0.23 | ratios of EC50 in EdU and EdC (KEdU½/KEdC½) (detection performed by the click reaction): 0.32
SMILES: C#Cc1cn([C@H]2C[C@H](O)[C@@H](CO)O2)c(=O)nc1N [EdC, 5-ethynyl-2'-deoxycytidine]
concentration of EdU providing approximately such a signal as 5 µmol.l^-1 EdC (EdC around 5 µmol.l^-1, not in the saturation area): ~0.55 µmol/L
